{"source": "patent US20230390273A1", "about": "“4-PHENYL-TETRAHYDROPYRIDINE DERIVATIVES FOR TREATING HEARING DISEASES” (CILCARE DEV, priority 2021, published 2023)", "key": {"[1]": {"system": "male Wistar rats", "assay": "ABR thresholds after acoustic trauma and trans-tympanic treatment (Example 5)", "format": "in vivo", "experimental": "Fourty-three male Wistar rats were selected and distributed to treatment and control groups, each group comprising between 6 to 9 rats at the start of the study. Randomization was performed using the ABR threshold in the left ear at 16 kHz as a criterium. The “sham” group comprises 7 rats, which received neither noise exposure nor trans-tympanic injection. […] The “traumatized” group comprises 9 rats, which received noise exposure only and no treatment. The “traumatized vehicle” group comprises 7 rats, which received noise exposure and a trans-tympanic injection of placebo (a composition comprising only Cremophor EL®). The “traumatized paliroden” group comprises 7 rats, which received noise exposure and a trans-tympanic injection of a composition comprising paliroden (fumarate salt), corresponding to composition 7P described in Example 2. The “traumatized xaliproden” group comprises 7 rats, which received noise exposure and a trans-tympanic injection of a composition comprising xaliproden (hydrochloride salt), corresponding to composition 7X described in Example 2.\nAll animals (except sham group) received a bilateral noise exposure at a noise band of 8-16 kHz at 115 dB SPL RMS during 2 hours (from time T0 to time T0+2 hours).\n30 μL of compositions comprising either paliroden or xaliproden as active agent were administered once in both ears of each rat of the treatment groups (30 μL per ear) via trans-tympanic administration by injection between the eardrum and the round window by means of a needle which crosses the eardrum, 4 hours after the start of the noise exposure (i.e. at T0+4 hours, thus 2 hours after the end of the noise exposure), under isoflurane anesthesia. The compositions correspond respectively to compositions 7P and 7X described in Example 2, i.e. they comprise only Cremophor EL® as excipient and either paliroden (fumarate salt) or xaliproden (hydrochloride salt) as active agent. The dose of paliroden (fumarate salt) that is administered is 240 μg per ear of the rats belonging to the “traumatized paliroden” group (240 μg in the 30 μL that are injected via trans-tympanic route by injection between the eardrum and the round window by means of a needle which crosses the eardrum). The dose of xaliproden (hydrochloride salt) that is administered is 192 μg per ear of the rats belonging to the “traumatized xaliproden” group (192 μg in the 30 μL that are injected via trans-tympanic route by injection between the eardrum and the round window by means of a needle which crosses the eardrum). […]"}, "[2]": {"assay": "Plasma and inner ear fluid exposure after single trans-tympanic injection in lipid-based mucoadhesive solution (Example 3)", "format": "in vivo, male Wistar rats", "conditions": "for concentration at 1 h: T0 + 1 hour; for concentration at 24 h: T0 + 24 hours; for High concentrations rapidly reached in the IEF (molar) / High concentrations rapidly reached in the inner ear fluid: trans-tympanic injection; for High concentrations rapidly reached in the IEF (molar): approximate conversion; for High concentrations rapidly reached in the inner ear fluid: summary", "experimental": "Composition 7P and composition 7X as described in example 2 were administered to male Wistar rats (5 animals per active agent and timepoint), as described below.\nAt time T0, 30 μL of composition 7P were administered to 15 rats, in a single ear via trans-tympanic injection. The dose of paliroden fumarate that has been administered is thus of 243 μg in one ear of each rat.\nAt time T0, 30 μL of composition 7X were administered to 15 other rats, in a single ear via trans-tympanic injection. The dose of xaliproden hydrochloride that has been administered is thus of 181.2 μg in one ear of each rat.\nFor the 15 rats that have received composition 7P and for the 15 rats that have received composition 7X, plasmatic and inner ear expositions were determined via blood and cochlea terminal sampling in order to achieve lithium-heparin plasma and inner ear fluid preparation, at T+1 hour, T+24 hours and T+168 hours. Bioanalytical methods were validated in both matrices (lithium heparin plasma and inner ear fluid) with a range of 0.2 to 815 ng/mL for paliroden (fumarate salt) and 0.2 to 763 ng/mL for xaliproden (hydrochloride salt)."}, "[3]": {"conditions": "one day following noise exposure, from 25 to 32 kHz, paliroden 240 μg/ear, xaliproden 192 μg/ear"}, "[4]": {"conditions": "male, Wistar, other: trans-tympanic injection, rat inner ear fluid, trans-tympanic 243 μg, read-out: Concentration of paliroden (fumarate salt), IEF, Mean"}, "[5]": {"conditions": "male, Wistar, plasma, other: trans-tympanic injection, rat, trans-tympanic 243 μg one ear, read-out: Concentration of paliroden (fumarate salt), Plasma, Mean"}, "[6]": {"conditions": "male, Wistar, other: trans-tympanic injection, rat inner ear fluid, trans-tympanic 181.2 μg, read-out: Concentration of xaliproden (hydrochloride salt), IEF, Mean"}, "[7]": {"conditions": "male, Wistar, plasma, other: trans-tympanic injection, rat, trans-tympanic 181.2 μg one ear, read-out: Concentration of xaliproden (hydrochloride salt), Plasma, Mean"}}, "note": "Counter-ions that a name gives are not always drawn. Like-named read-outs stand apart in the source and are kept apart here."}
{"smiles": "FC(F)(F)c1cccc(C2=CCN(CCc3ccc(-c4ccccc4)cc3)CC2)c1", "note": "[paliroden (fumarate salt), 1-[2-(4-biphenylyl)ethyl]-4-(3-trifluoromethylphenyl)-1,2,3,6-tetrahydropyridine]", "values": [{"measurement": "ABR Threshold shifts reduction in comparison to the traumatized vehicle group", "setting": "[1]; 7 days post-noise, from 16 to 32 kHz, paliroden 240 μg/ear", "value": "15-20 dB"}, {"measurement": "ABR Threshold shifts reduction in comparison to the traumatized vehicle group", "setting": "[1]; [3]", "value": "approximately 10 dB"}, {"measurement": "concentration at 1 h", "setting": "[2]; [4]", "value": 5100, "unit": "ng/mL"}, {"measurement": "concentration at 24 h", "setting": "[2]; [4]", "value": 3.2, "unit": "ng/mL"}, {"measurement": "concentration at 1 h", "setting": "[2]; [5]", "value": 0.9, "unit": "ng/mL"}, {"measurement": "concentration at 24 h", "setting": "[2]; [5]", "value": 1.7, "unit": "ng/mL"}, {"measurement": "Concentration of paliroden (fumarate salt), IEF, Mean", "setting": "[2]; rat inner ear fluid, trans-tympanic 243 μg, T0 + 168 hours", "value": "BLQ"}, {"measurement": "Concentration of paliroden (fumarate salt), Plasma, Mean", "setting": "[2]; rat, trans-tympanic 243 μg one ear, T0 + 168 hours", "value": "BLQ"}, {"measurement": "High concentrations rapidly reached in the IEF (molar)", "setting": "[2]; rat", "value": "approximately 10 μM"}, {"measurement": "High concentrations rapidly reached in the inner ear fluid", "setting": "[2]; rat", "value": "approximately 5000 ng/mL"}]}
{"smiles": "FC(F)(F)c1cccc(C2=CCN(CCc3ccc4ccccc4c3)CC2)c1", "note": "[xaliproden (hydrochloride salt), 1-[2-(2-naphthyl)ethyl]-4-(3-trifluoromethylphenyl)-1,2,3,6-tetrahydropyridine]", "values": [{"measurement": "ABR Threshold shifts reduction in comparison to the traumatized vehicle group", "setting": "[1]; 7 days post-noise, from 25 to 32 kHz, xaliproden 192 μg/ear", "value": "approximately 15 dB"}, {"measurement": "ABR Threshold shifts reduction in comparison to the traumatized vehicle group", "setting": "[1]; [3]", "value": "approximately 10 dB"}, {"measurement": "concentration at 1 h", "setting": "[2]; [6]", "value": 2510, "unit": "ng/mL"}, {"measurement": "concentration at 24 h", "setting": "[2]; [6]", "value": 74.3, "unit": "ng/mL"}, {"measurement": "concentration at 1 h", "setting": "[2]; [7]", "value": 4.4, "unit": "ng/mL"}, {"measurement": "concentration at 24 h", "setting": "[2]; [7]", "value": 5.2, "unit": "ng/mL"}, {"measurement": "concentration at 168 h", "setting": "[2]; male, Wistar, plasma, other: trans-tympanic injection, rat, trans-tympanic 181.2 μg one ear, T0 + 168 hours, read-out: Concentration of xaliproden (hydrochloride salt), Plasma, Mean", "value": 0.5, "unit": "ng/mL"}, {"measurement": "Concentration of xaliproden (hydrochloride salt), IEF, Mean", "setting": "[2]; rat inner ear fluid, trans-tympanic 181.2 μg, T0 + 168 hours", "value": "BLQ"}, {"measurement": "High concentrations rapidly reached in the IEF (molar)", "setting": "[2]; rat", "value": "~5", "unit": "µM"}, {"measurement": "High concentrations rapidly reached in the inner ear fluid", "setting": "[2]; rat", "value": "~2500", "unit": "ng/mL"}]}
